Results as given in patent publication US20250296953A1, “3,4-THIAZOLO-STEROIDS AND METHODS OF MAKING AND USING THE SAME” (Arkansas State University - Jonesboro, priority 2018, published 2025).
Where two headings read alike, the source gives them in different places.

Key:
[1] = system: gliosarcoma (SF-539); experiment: NCI 60 five dose screen; details: Homo sapiens, SF-539
[2] = system: SK-MEL-5; experiment: Melanoma cytotoxicity assay (resazurin); assay type: cell-based; details: SK-MEL-5 melanoma cells, 24 hours with compound, resazurin; concentration not given
Method in brief: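 ~4000 cells/well, 24 h attach, 37° C/5% CO2; cpd triplicate, 24 h; resazurin 6 h; fluor 544/590 nm. % viability vs DMSO after media-blank subtraction; IC50 from dilution series, sigmoidal fit.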

[3] = system: SK-MEL-25; experiment: Melanoma cytotoxicity assay (resazurin); assay type: cell-based; details: SK-MEL-25 melanoma cells, 24 hours with compound, resazurin; concentration not given
Method in brief: (§1)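 Readout: resazurin fluorescence (ex 544, em 590 nm) after 6 h dye incubation, following 24 h compound exposure of ~4000 cells/well. Viability = background-subtracted signal over DMSO wells; IC50 by sigmoidal curve fitting.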

[4] = system: SK-MEL-28; experiment: Melanoma cytotoxicity assay (resazurin); assay type: cell-based; details: SK-MEL-28 melanoma cells, 24 hours with compound, resazurin; concentration not given
Method in brief: as §1

[5] = system: SF-295; experiment: NCI 60 one dose screen; assay type: cell-based, human; details: one dose; CNS Cancer; SF-295
[6] = system: 60 different human tumor cell lines; experiment: cells

C[C@]12CCc3sc(Nc4ccc(F)cc4F)nc3C1=CC[C@@H]1[C@@H]2CC[C@]2(C)C(=O)CC[C@@H]12 [IIa.10, (1S,2R,13R,14S,18S)-7-(2,4-difluoroanilino)-2,18-dimethyl-6-thia-8-azapentacyclo[11.7.0.02,10.05,9.014,18]icosa-5(9),7,10-trien-17-one]
GI50 [1]: 1.63 µM | SK-MEL-5 (% inhibition) [2]: 48% | SK-MEL-25 (% inhibition) [3]: 34% | SK-MEL-28 (% inhibition) [4]: 14% | Growth Percent [5]: 50.99% | CC50 ([6]; 60 cell, read-out: LC50): > 100 µM | CC50 ([6]; A498, read-out: LC50): > 100 µM | CC50 ([6]; A549, read-out: LC50): > 100 µM | GI50 ([6]; ACHN): 1.81 µM | CC50 ([6]; BT-549, read-out: LC50): > 100 µM | CC50 ([6]; CAKI-1, read-out: LC50): > 100 µM | GI50 ([6]; CCRF-CEM): 2.64 µM | CC50 ([6]; CCRF-CEM, read-out: LC50): > 100 µM | GI50 ([6]; DU-145): 1.98 µM | CC50 ([6]; EKVX, read-out: LC50): > 100 µM | GI50 ([6]; HCT-15): 1.7 µM | CC50 ([6]; HCT-15, read-out: LC50): > 100 µM | GI50 ([6]; HCT-116): 1.67 µM | CC50 ([6]; HL-60, read-out: LC50): > 100 µM | CC50 ([6]; HOP-62, read-out: LC50): > 100 µM | CC50 ([6]; HOP-92, read-out: LC50): > 100 µM | GI50 ([6]; HT-29): 2.24 µM | CC50 ([6]; HT-29, read-out: LC50): > 100 µM | CC50 ([6]; Hs-578T, read-out: LC50): > 100 µM | CC50 ([6]; IGROV-1, read-out: LC50): > 100 µM | GI50 ([6]; K562): 2.43 µM | CC50 ([6]; K562, read-out: LC50): > 100 µM | GI50 ([6]; LOX IMVI): 1.71 µM | CC50 ([6]; M14, read-out: LC50): > 100 µM | CC50 ([6]; MCF7, read-out: LC50): > 100 µM | CC50 ([6]; MDA-MB-231, read-out: LC50): > 100 µM | CC50 ([6]; MDA-MB-435, read-out: LC50): > 100 µM | GI50 ([6]; MDA-MB-468): 1.75 µM | GI50 ([6]; MOLT-4): 2.44 µM | CC50 ([6]; MOLT-4, read-out: LC50): > 100 µM | CC50 ([6]; Malme-3M, read-out: LC50): > 100 µM | CC50 ([6]; NCI-H23, read-out: LC50): > 100 µM | GI50 ([6]; NCI-H226): 1.83 µM | CC50 ([6]; NCI-H322M, read-out: LC50): > 100 µM | CC50 ([6]; NCI-H460, read-out: LC50): > 100 µM | GI50 ([6]; NCI-H522): 1.84 µM | CC50 ([6]; NCI/ADR-RES, read-out: LC50): > 100 µM | GI50 ([6]; OVCAR-3): 1.9 µM | CC50 ([6]; OVCAR-4, read-out: LC50): > 100 µM | CC50 ([6]; OVCAR-5, read-out: LC50): > 100 µM | GI50 ([6]; OVCAR-8): 2.96 µM | CC50 ([6]; OVCAR-8, read-out: LC50): > 100 µM | GI50 ([6]; RXF 393): 1.57 µM | CC50 ([6]; SF-268, read-out: LC50): > 100 µM | CC50 ([6]; SK-MEL-2, read-out: LC50): > 100 µM | GI50 ([6]; SK-MEL-5): 1.88 µM | CC50 ([6]; SK-OV-3, read-out: LC50): > 100 µM | CC50 ([6]; SN12C, read-out: LC50): > 100 µM | CC50 ([6]; SNB-19, read-out: LC50): > 100 µM | CC50 ([6]; SNB-75, read-out: LC50): > 100 µM | GI50 ([6]; SW-620): 2.4 µM | CC50 ([6]; SW-620, read-out: LC50): > 100 µM | GI50 ([6]; T47D): 2.25 µM | CC50 ([6]; T47D, read-out: LC50): > 100 µM | GI50 ([6]; TK-10): 2.8 µM | CC50 ([6]; TK-10, read-out: LC50): > 100 µM | CC50 ([6]; U-251, read-out: LC50): > 100 µM | CC50 ([6]; UACC-62, read-out: LC50): > 100 µM | CC50 ([6]; UACC-257, read-out: LC50): > 100 µM
